The values that follow come from patent US20230130766A1 (SALK INSTITUTE FOR BIOLOGICAL STUDIES, priority 2020, published 2023).

Common to all, as to type: in vivo, nude mice
For one assay, the system named is MIA PaCa-2 cells. Kind of assay: MIA PaCa-2 xenografts, ULK inhibitor alone versus gemcitabine. The note with it: day 42, Compound 14 20 mg/kg twice daily, gemcitabine dose not given. Here is the method: MIA PaCa-2 cells were injected bilaterally into the flanks of nude mice to create tumor xenografts in order to assess the efficacy of Compound 14 in treating pancreatic cancer tumors compared to gemcitabine, a current standard of care therapy for pancreatic cancer. After 3 days of letting tumor cells proliferate (at which point tumors were ˜100 mm^3 in volume), administration of gemcitabine or Compound 14 was initiated. One cohort received 20 mg/kg twice daily doses of Compound 14, one cohort received gemcitabine, and the remaining cohort was treated with vehicle. Treatment and monitoring were continued until day 42 post inoculation of tumor cells (30 days of treatment).

The next assay deals with A549 cells. Kind of assay: A549 xenograft large tumors, ULK inhibitor alone versus carboplatin. The note with it: A549 large tumors; each Compound 14 cohort: 20 mg/kg twice daily, 30 mg/kg twice daily, 40 mg/kg once daily; 32 days. Here is the method: A549 cells (5M cells) were injected bilaterally into the flanks of forty-six nude mice to create tumor xenografts in order to assess the efficacy of Compound 14 in treating larger non-small cell lung cancer tumors compared to carboplatin, the current standard of care therapy for non-small cell lung cancer. After 40 days of letting tumor cells proliferate (at which point tumors were over 200 mm^3 in volume), administration of carboplatin or Compound 14 was initiated. One cohort of twelve mice received 20 mg/kg twice daily doses of Compound 14, one cohort of ten mice received 30 mg/kg twice daily doses of Compound 14, one cohort of seven mice received 25 mg/kg doses of carboplatin every three days, one cohort of seven mice received 40 mg/kg once daily doses of Compound 14, and the remaining ten mice were treated with vehicle. Treatment and monitoring was continued until day 72 post inoculation of tumor cells (32 days of treatment).

Assay [1] relates to phosphorylated ATG13 (P-ATG). Kind of assay: Western blot analysis of A549 xenograft tumors. The note with it: A549 xenograft tumors at end of study. On the procedure: A549 cells (5M cells) were injected bilaterally into the flanks of thirty-six nude mice to create tumor xenografts in order to assess the efficacy of Compound 14 in treating non-small cell lung cancer tumors both alone and in combination with carboplatin, the current standard of care therapy for non-small cell lung cancer. After 11 days of letting tumor cells proliferate (at which point tumors were ˜50 mm^3 in volume), administration of carboplatin, Compound 14, or combinations began. One cohort of six mice received 20 mg/kg twice daily doses of Compound 14 alone, one cohort of six mice received 30 mg/kg twice daily doses of Compound 14 alone, one cohort of six mice received 25 mg/kg doses of carboplatin every three days, one cohort of six mice received 20 mg/kg twice daily doses of Compound 14 in conjunction with 25 mg/kg doses of carboplatin every three days, one cohort of six mice received 30 mg/kg twice daily doses of Compound 14 in conjunction with 25 mg/kg doses of carboplatin every three days, and the remaining six mice were treated with vehicle. Treatment and monitoring was continued until day 53 post inoculation of tumor cells (42 days of treatment).
At the end of the study, Western blot analysis of the tumors from vehicle and Compound 14 monotherapy cohorts was analyzed.

With `CNC(=O)c1ccccc1Nc1nc(Nc2cc(OC)c(OC)c(OC)c2)ncc1Br` [Compound 14], the final tumor volume with MIA PaCa-2 cells was around 800 mm^3. In the assay on A549 cells, the “tumor growth compared with the start of treatment” value is listed as “little to no growth, or even a decrease in tumor volume”. In addition, the “phosphorylated ATG13 in tumors (Western blot)” value is listed as “some residual phosphorylated ATG13” in assay [1] (20 mg/kg twice daily monotherapy) and “almost total elimination of phosphorylated ATG13” in assay [1] (30 mg/kg twice daily monotherapy).
